Results on 6 compounds are retold here after patent US20060217351A1, “Method for treating cardiovascular diseases” (priority 2003, published 2006).

In data set [1] the test system is platelet aggregation. Description: anti-platelet aggregation ability of active metabolite enantiomers. The following applies: enantiomers of active metabolite II. The source says: The active metabolite is a mixture of four enantiomers each of which has shown dose dependent anti-platelet aggregation ability, and thus useful for the practice of the invention.
A further data set deals with cerebral infarct. Kind of data set: embolic cerebral infarction model. It counts as in vivo. The following applies: rats.
In data set [2] the test system is platelet aggregation. Kind of data set: comparative study of inhibition of platelet aggregation. It counts as in vivo. The note with it: for inhibition of platelet aggregation: in thirty (30) minutes.
The test system of the next data set is thrombus formation. The following applies: rats, p.o., cited from earlier work; for ED50, prevention of thrombus formation: arteriovenous shunt model.
The nature of data set [3]: storage stability of crystals. It counts as physicochemical. The following applies: crystal form comparison.

Consider `O=C(O)/C=C1/CN(C(C(=O)C2CC2)c2ccccc2F)CCC1S` (stereo not drawn) [RS enantiomer], for which the anti-platelet aggregation ability result in the data set on platelet aggregation [1] is on record as “most potent”.

`COC(=O)[C@H](c1ccccc1Cl)N1CCc2sccc2C1` [clopidogrel bisulfate]: in the data set on cerebral infarct, the “effect on total area of cerebral infarct” value is “similar, yet milder effect on cerebral infarcts” and the “potency compared to compound of formula I (times less potent)” value is reported as “about 10 times”.

Regarding `COC(=O)[C@H](c1ccccc1Cl)N1CCc2sccc2C1` [clopidogrel, reference compound], in the data set with platelet aggregation [2], the “inhibition of platelet aggregation” value is recorded as “minimal aggregation”. In the data set with thrombus formation, the “ED50, prevention of thrombus formation” value is 7.0 mg/kg.

Regarding `CC(=O)Oc1cc2c(s1)CCN(C(C(=O)C1CC1)c1ccccc1F)C2` (stereo not drawn) [compound of formula I, 2-Acetoxy-5-(α-cyclopropylcarbonyl-2-fluorobenzyl)-4,5,6,7-tetrahydrothieno[3,2-c]pyridine], the “inhibition of platelet aggregation” value with platelet aggregation [2] was “greater than 50%”. Moreover, the “potency compared to clopidogrel (times higher)” value with platelet aggregation [2] (in vivo, versus clopidogrel) is “approximately 10 times”. In the data set on cerebral infarct, the “effect on total area of cerebral infarct” value is reported as “reduced the total area of cerebral infarct in rats, in a dose related manner”. In addition, in the data set with thrombus formation (0.12-3 mg/kg), the “effect on thrombus formation” value is reported as “prevented thrombus formation in a dose dependent manner”. Also, in the data set on thrombus formation, the “ED50, prevention of thrombus formation” value was 0.65 mg/kg.

With `CC(=O)Oc1cc2c(s1)CCN(C(C(=O)C1CC1)c1ccccc1F)C2.Cl` (stereo not drawn) [crystal B1, 2-Acetoxy-5-(α-cyclopropylcarbonyl-2-fluorobenzyl)-4,5,6,7-tetrahydrothieno[3,2-c]pyridine hydrochloride (crystal B1)], the storage stability result in data set [3] was “more excellent storage stability than crystal A”.

Consider `CC(=O)Oc1cc2c(s1)CCN(C(C(=O)C1CC1)c1ccccc1F)C2.Cl` (stereo not drawn) [crystal B2, 2-Acetoxy-5-(α-cyclopropylcarbonyl-2-fluorobenzyl)-4,5,6,7-tetrahydrothieno[3,2-c]pyridine hydrochloride (crystal B2)], for which the storage stability entry in data set [3] is given as “more excellent storage stability than crystal B1”.
